Results taken from ChEMBL document CHEMBL4507286 (2021).

What was measured:
[1] = target: Mitogen-activated protein kinase 11 (Homo sapiens) (UniProt Q15759)
[2] = test system: Epidermal growth factor receptor (Homo sapiens), P00533 [UNDEFINED MUTATION]
[3] = target: Serine/threonine-protein kinase PknB (Mycobacterium tuberculosis) (UniProt P9WI81)
[4] = target: Non-receptor tyrosine-protein kinase TYK2 (Homo sapiens) (UniProt P29597)
[5] = target: Cyclin-dependent kinase 11B (Homo sapiens) (UniProt P21127)
[6] = target: Serine/threonine-protein kinase MARK2 (Homo sapiens, UniProt Q7KZI7)
[7] = target: Alpha-2C adrenergic receptor (Homo sapiens) (UniProt P18825); conditions: Compound concentration 10.0 uM
[8] = target: Mitogen-activated protein kinase kinase kinase 19 (Homo sapiens) (UniProt Q56UN5)
[9] = target: Tyrosine-protein kinase receptor UFO (Homo sapiens) (UniProt P30530)
[10] = target: LIM domain kinase 1 (Homo sapiens) (UniProt P53667)
[11] = target: 5-hydroxytryptamine receptor 1A (Homo sapiens) (UniProt P08908); conditions: Compound concentration 10.0 uM
[12] = target: Phosphatidylinositol 4-phosphate 5-kinase type-1 alpha (Homo sapiens) (UniProt Q99755)
[13] = target: Angiopoietin-1 receptor (Homo sapiens) (UniProt Q02763)
[14] = target: Interferon-induced, double-stranded RNA-activated protein kinase (Homo sapiens) (UniProt P19525)
[15] = target: Serine/threonine-protein kinase BRSK2 (Homo sapiens) (UniProt Q8IWQ3)
[16] = target: Proto-oncogene tyrosine-protein kinase receptor Ret (Homo sapiens) (UniProt P07949)
[17] = target: Serine/threonine-protein kinase mTOR (Homo sapiens) (UniProt P42345)
[18] = target: Casein kinase I isoform gamma-1 (Homo sapiens) (UniProt Q9HCP0)
[19] = target: Serine/threonine-protein kinase tousled-like 2 (Homo sapiens) (UniProt Q86UE8)
[20] = target: Muscarinic acetylcholine receptor M4 (Homo sapiens) (UniProt P08173); conditions: Compound concentration 10.0 uM
[21] = target: Serine/threonine-protein kinase B-raf (Homo sapiens) (UniProt P15056)
[22] = target: Protein kinase C epsilon type (Homo sapiens) (UniProt Q02156)
[23] = target: 5-hydroxytryptamine receptor 2B (Homo sapiens, UniProt P41595); conditions: Compound concentration 10.0 uM
[24] = target: Serine/threonine-protein kinase TBK1 (Homo sapiens) (UniProt Q9UHD2)
[25] = target: Maternal embryonic leucine zipper kinase (Homo sapiens) (UniProt Q14680)
[26] = test system: Tyrosine-protein kinase ABL1 (Homo sapiens), P00519 [Q252H]
[27] = test system: Proto-oncogene tyrosine-protein kinase receptor Ret (Homo sapiens), P07949 [M918T]
[28] = target: Tyrosine-protein kinase SYK (Homo sapiens) (UniProt P43405)
[29] = target: 5-hydroxytryptamine receptor 5A (Homo sapiens) (UniProt P47898); conditions: Compound concentration 10.0 uM
[30] = target: Receptor-interacting serine/threonine-protein kinase 2 (Homo sapiens) (UniProt O43353)
[31] = target: Histamine H2 receptor (Homo sapiens) (UniProt P25021); conditions: Compound concentration 10.0 uM
[32] = target: Ankyrin repeat and protein kinase domain-containing protein 1 (Homo sapiens) (UniProt Q8NFD2)
[33] = target: Cyclin-G-associated kinase (Homo sapiens) (UniProt O14976)
[34] = test system: Fibroblast growth factor receptor 3 (Homo sapiens), P22607 [G697C]
[35] = target: Serine/threonine-protein kinase 36 (Homo sapiens) (UniProt Q9NRP7)
[36] = target: Phosphorylase b kinase gamma catalytic chain, skeletal muscle/heart isoform (Homo sapiens) (UniProt Q16816)
[37] = target: Activin receptor type-1-like (Homo sapiens) (UniProt P37023)
[38] = target: Calcium/calmodulin-dependent protein kinase type II subunit gamma (Homo sapiens) (UniProt Q13555)
[39] = test system: Phosphatidylinositol 4,5-bisphosphate 3-kinase catalytic subunit alpha isoform (Homo sapiens), P42336 [E542K]
[40] = target: Calcium/calmodulin-dependent protein kinase kinase 2 (Homo sapiens) (UniProt Q96RR4)
[41] = target: Homeodomain-interacting protein kinase 3 (Homo sapiens) (UniProt Q9H422)
[42] = target: SNF-related serine/threonine-protein kinase (Homo sapiens) (UniProt Q9NRH2)
[43] = target: Activin receptor type-2A (Homo sapiens) (UniProt P27037)
[44] = target: Interleukin-1 receptor-associated kinase 1 (Homo sapiens) (UniProt P51617)
[45] = target: Death-associated protein kinase 1 (Homo sapiens) (UniProt P53355)
[46] = Compound concentration 100.0 nM
[47] = Compound concentration 1000.0 nM

Sequence of Histamine H2 receptor (Homo sapiens) (P25021 whole entry, the tested form may be a part): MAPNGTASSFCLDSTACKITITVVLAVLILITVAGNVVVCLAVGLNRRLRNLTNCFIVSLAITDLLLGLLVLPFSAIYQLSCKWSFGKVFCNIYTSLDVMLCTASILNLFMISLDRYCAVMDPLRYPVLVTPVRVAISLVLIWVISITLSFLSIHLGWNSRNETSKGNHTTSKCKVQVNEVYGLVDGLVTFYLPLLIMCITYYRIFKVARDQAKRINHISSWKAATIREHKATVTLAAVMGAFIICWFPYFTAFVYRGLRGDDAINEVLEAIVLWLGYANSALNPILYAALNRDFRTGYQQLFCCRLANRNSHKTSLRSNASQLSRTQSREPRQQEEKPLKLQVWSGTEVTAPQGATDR
Sequence of Interleukin-1 receptor-associated kinase 1 (Homo sapiens) (P51617 whole entry, looked up): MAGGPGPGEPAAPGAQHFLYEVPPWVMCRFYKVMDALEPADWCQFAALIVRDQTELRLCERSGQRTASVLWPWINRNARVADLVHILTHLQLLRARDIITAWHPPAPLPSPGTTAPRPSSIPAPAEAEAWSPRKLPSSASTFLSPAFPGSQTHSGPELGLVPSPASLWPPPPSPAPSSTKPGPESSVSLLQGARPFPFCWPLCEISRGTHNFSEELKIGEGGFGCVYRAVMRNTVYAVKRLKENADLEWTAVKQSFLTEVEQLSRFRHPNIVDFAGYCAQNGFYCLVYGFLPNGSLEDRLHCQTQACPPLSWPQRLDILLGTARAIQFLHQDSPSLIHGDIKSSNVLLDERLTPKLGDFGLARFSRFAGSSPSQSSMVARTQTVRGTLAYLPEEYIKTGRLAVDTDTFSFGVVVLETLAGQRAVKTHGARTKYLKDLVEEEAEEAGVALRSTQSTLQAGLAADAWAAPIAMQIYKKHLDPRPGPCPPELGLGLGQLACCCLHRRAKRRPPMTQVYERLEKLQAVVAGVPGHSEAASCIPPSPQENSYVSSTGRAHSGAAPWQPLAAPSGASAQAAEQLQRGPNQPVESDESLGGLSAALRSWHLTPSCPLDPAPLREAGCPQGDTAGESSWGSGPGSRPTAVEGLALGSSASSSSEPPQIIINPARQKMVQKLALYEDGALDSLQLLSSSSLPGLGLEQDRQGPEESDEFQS
Sequence of Muscarinic acetylcholine receptor M4 (Homo sapiens) (P08173 whole entry): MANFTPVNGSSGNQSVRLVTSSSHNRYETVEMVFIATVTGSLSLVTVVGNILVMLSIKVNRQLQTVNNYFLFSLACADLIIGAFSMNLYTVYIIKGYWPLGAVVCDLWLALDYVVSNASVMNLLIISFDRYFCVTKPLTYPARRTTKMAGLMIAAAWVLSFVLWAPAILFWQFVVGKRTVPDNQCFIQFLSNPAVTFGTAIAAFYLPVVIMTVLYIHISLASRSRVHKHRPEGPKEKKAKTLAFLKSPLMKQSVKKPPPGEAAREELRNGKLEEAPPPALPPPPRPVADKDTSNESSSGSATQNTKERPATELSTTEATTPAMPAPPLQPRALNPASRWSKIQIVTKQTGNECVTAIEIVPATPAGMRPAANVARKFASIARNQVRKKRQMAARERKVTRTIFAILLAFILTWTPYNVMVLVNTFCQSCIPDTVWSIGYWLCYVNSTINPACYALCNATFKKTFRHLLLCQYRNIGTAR
Sequence of Death-associated protein kinase 1 (Homo sapiens) (P53355 whole entry, looked up): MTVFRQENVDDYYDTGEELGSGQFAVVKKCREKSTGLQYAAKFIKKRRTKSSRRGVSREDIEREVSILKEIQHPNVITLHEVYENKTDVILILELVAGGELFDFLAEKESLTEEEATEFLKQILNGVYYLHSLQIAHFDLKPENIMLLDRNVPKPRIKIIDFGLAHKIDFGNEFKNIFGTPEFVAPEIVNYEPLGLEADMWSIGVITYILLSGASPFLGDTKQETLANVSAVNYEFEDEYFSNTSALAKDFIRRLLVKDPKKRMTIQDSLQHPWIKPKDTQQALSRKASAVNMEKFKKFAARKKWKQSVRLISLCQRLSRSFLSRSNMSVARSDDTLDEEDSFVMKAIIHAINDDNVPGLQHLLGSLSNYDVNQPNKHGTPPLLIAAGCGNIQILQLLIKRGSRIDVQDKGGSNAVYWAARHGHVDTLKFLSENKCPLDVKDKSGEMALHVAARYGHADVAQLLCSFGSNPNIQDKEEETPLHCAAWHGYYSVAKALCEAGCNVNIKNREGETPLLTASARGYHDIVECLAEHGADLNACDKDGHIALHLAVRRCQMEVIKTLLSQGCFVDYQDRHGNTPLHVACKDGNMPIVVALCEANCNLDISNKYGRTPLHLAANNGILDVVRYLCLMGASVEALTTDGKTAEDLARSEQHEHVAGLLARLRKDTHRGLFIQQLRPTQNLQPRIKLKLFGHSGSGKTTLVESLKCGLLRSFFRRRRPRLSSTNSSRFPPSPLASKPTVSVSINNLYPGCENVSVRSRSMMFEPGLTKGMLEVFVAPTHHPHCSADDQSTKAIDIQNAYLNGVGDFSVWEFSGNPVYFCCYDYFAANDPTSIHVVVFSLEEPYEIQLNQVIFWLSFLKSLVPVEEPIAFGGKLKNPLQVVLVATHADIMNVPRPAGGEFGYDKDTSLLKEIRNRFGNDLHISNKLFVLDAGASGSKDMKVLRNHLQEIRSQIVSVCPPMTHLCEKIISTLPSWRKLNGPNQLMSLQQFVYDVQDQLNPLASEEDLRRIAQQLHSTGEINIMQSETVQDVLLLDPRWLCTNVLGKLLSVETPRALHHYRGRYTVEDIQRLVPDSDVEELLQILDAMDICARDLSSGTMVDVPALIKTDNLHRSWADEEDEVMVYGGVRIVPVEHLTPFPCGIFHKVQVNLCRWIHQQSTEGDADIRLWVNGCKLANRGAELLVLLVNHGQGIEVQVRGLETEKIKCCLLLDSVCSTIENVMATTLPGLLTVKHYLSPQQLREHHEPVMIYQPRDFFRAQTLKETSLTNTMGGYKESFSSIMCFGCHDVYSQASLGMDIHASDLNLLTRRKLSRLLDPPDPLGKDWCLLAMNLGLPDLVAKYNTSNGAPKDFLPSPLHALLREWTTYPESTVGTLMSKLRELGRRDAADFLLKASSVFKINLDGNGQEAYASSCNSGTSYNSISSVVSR
Sequence of 5-hydroxytryptamine receptor 2B (P41595 whole entry): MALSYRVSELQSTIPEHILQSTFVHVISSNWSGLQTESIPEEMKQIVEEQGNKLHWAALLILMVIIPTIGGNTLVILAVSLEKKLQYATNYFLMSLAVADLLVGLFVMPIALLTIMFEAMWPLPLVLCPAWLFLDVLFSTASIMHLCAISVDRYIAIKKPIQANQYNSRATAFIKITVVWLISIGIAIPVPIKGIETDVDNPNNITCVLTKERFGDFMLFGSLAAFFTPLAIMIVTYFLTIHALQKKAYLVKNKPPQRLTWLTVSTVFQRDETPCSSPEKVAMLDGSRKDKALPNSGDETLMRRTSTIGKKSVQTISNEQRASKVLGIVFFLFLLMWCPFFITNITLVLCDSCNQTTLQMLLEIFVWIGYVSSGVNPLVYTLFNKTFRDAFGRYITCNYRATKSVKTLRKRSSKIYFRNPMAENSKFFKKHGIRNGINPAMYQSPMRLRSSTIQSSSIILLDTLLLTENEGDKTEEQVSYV
Sequence of Calcium/calmodulin-dependent protein kinase type II subunit gamma (Homo sapiens) (Q13555 whole entry, canonical isoform): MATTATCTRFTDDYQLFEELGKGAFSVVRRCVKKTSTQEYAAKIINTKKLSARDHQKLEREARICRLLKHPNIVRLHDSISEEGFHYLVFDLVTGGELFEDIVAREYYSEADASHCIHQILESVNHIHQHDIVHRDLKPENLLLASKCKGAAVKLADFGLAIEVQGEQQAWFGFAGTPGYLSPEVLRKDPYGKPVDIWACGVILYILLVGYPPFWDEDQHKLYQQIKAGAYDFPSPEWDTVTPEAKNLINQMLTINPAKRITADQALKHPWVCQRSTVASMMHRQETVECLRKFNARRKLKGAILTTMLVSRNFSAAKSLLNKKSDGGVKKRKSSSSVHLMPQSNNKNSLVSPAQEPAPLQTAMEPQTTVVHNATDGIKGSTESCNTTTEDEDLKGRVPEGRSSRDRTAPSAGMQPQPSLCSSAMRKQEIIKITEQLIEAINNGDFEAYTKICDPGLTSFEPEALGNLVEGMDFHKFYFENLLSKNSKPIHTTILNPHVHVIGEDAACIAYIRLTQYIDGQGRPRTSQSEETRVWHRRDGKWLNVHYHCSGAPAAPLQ
Sequence of Activin receptor type-2A (Homo sapiens) (P27037 whole entry): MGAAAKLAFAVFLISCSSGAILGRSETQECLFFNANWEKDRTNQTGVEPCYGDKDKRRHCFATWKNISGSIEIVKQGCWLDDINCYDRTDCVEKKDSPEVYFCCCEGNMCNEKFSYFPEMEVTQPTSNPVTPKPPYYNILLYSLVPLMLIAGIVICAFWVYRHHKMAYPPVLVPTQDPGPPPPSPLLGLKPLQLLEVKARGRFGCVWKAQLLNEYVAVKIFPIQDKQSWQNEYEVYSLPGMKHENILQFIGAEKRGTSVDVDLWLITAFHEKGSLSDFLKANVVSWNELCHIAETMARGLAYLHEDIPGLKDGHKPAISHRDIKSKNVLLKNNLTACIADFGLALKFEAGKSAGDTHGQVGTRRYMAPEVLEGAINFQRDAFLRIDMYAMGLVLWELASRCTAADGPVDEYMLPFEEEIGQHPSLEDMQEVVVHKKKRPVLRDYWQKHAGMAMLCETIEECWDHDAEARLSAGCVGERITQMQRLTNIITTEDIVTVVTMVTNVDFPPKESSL
Sequence of Casein kinase I isoform gamma-1 (Homo sapiens) (Q9HCP0 whole entry, looked up, canonical isoform): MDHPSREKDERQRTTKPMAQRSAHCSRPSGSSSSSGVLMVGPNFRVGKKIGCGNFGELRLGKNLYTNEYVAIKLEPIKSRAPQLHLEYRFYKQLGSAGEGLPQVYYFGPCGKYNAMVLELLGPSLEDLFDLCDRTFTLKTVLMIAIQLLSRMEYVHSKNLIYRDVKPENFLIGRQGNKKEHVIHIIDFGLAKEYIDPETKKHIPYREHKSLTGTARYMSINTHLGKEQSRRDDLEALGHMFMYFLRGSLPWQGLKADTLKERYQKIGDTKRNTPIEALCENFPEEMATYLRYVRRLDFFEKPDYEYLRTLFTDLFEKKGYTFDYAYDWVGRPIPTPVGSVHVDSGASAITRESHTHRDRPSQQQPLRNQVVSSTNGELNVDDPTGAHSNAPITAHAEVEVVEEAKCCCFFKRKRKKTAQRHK

## C[C@@H](NC(=O)Nc1cc2[nH]ncc2c(CO)n1)c1ccccc1 [ERKi]
[1]; [46]
  residual activity: 100%
[2]; [46]
  residual activity: 72.6%
[3]; [46]
  residual activity: 85%
[4]; [46]
  residual activity: 97.8%
[5]; [46]
  residual activity: 97.4%
[6]; [46]
  residual activity: 100%
[7]
  inhibition: -8.07%
[8]; [46]
  residual activity: 86.2%
[9]; [46]
  residual activity: 77.9%
[10]; [46]
  residual activity: 94.1%
[11]
  inhibition: -1.87%
[12]; [46]
  residual activity: 84.5%
[13]; [46]
  residual activity: 100%
[14]; [46]
  residual activity: 78.1%
[15]; [46]
  residual activity: 89.3%
[16]; [46]
  residual activity: 92.6%
[17]; [46]
  residual activity: 71.8%
[18]; [46]
  residual activity: 83%
[19]; [46]
  residual activity: 86.9%
[20]
  inhibition: -0.569%
[21]; [46]
  residual activity: 86.9%
[22]; [46]
  residual activity: 85%
[23]
  inhibition: 13.1%
[24]; [46]
  residual activity: 84.8%
[25]; [46]
  residual activity: 58.7%
[26]; [46]
  residual activity: 67.8%
[27]; [46]
  residual activity: 100%
[28]; [46]
  residual activity: 100%
[29]
  inhibition: 1.39%
[30]; [46]
  residual activity: 90.3%
[31]
  inhibition: 11.8%
[32]; [46]
  residual activity: 78.2%
[33]; [46]
  residual activity: 100%
[34]; [46]
  residual activity: 100%
[35]; [46]
  residual activity: 88.4%
[36]; [46]
  residual activity: 84.1%
[37]; [46]
  residual activity: 90.9%
[38]; [46]
  residual activity: 84.6%
[39]; [46]
  residual activity: 78.6%
[40]; [46]
  residual activity: 75.2%
[41]; [46]
  residual activity: 96.2%
[42]; [46]
  residual activity: 100%
[43]; [46]
  residual activity: 74.7%
[44]; [46]
  residual activity: 54.8%
[45]; [46]
  residual activity: 90.5%

## C[C@H](NC(=O)Nc1cc2[nH]ncc2c(CO)n1)c1ccccn1 [ERKi-NC]
[1]; [47]
  residual activity: 100%
[2]; [47]
  residual activity: 86.6%
[3]; [47]
  residual activity: 100%
[4]; [47]
  residual activity: 100%
[5]; [47]
  residual activity: 94.2%
[6]; [47]
  residual activity: 100%
[7]
  inhibition: 11.5%
[8]; [47]
  residual activity: 100%
[9]; [47]
  residual activity: 100%
[10]; [47]
  residual activity: 100%
[11]
  inhibition: 20%
[12]; [47]
  residual activity: 100%
[13]; [47]
  residual activity: 71.1%
[14]; [47]
  residual activity: 71.8%
[15]; [47]
  residual activity: 88%
[16]; [47]
  residual activity: 100%
[17]; [47]
  residual activity: 93.1%
[18]; [47]
  residual activity: 100%
[19]; [47]
  residual activity: 88.4%
[20]
  inhibition: 18.7%
[21]; [47]
  residual activity: 100%
[22]; [47]
  residual activity: 100%
[23]
  inhibition: 90.9%
[24]; [47]
  residual activity: 48.3%
[25]; [47]
  residual activity: 100%
[26]; [47]
  residual activity: 100%
[27]; [47]
  residual activity: 100%
[28]; [47]
  residual activity: 100%
[29]
  inhibition: 9.46%
[30]; [47]
  residual activity: 77%
[31]
  inhibition: 3.05%
[32]; [47]
  residual activity: 100%
[33]; [47]
  residual activity: 100%
[34]; [47]
  residual activity: 100%
[35]; [47]
  residual activity: 97.3%
[36]; [47]
  residual activity: 96.3%
[37]; [47]
  residual activity: 92.3%
[38]; [47]
  residual activity: 100%
[39]; [47]
  residual activity: 76.7%
[40]; [47]
  residual activity: 85.4%
[41]; [47]
  residual activity: 85.1%
[42]; [47]
  residual activity: 100%
[43]; [47]
  residual activity: 85.6%
[44]; [47]
  residual activity: 100%
[45]; [47]
  residual activity: 100%
